Test results from US12077503B2, “Substituted cyclic amides and their use as herbicides” (FMC CORPORATION, priority 2015, dated 2024).
Where two headings read alike, the source gives them in different places.

Columns and labels:
Experiment in all cases: Test B flooded paddy test
Type in all cases: in vivo
[1] = system: ducksalad (Heteranthera limosa); settings: Heteranthera limosa, Flood, 250 g ai/ha
Outline: (§1)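 Flooding to 3 cm over soil accompanied treatment, which consisted of adding compound to the standing water around 2-leaf plants; depth was then maintained. Visual assessment versus controls followed at 13 to 15 d (scale 0–100, 0 meaning no effect).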

[2] = system: rice (Oryra sativa); settings: Oryza sativa, Flood, 250 g ai/ha
Outline: as §1

[3] = system: barnyardgrass (Echinochloa crus-galli); settings: Echinochloa crus-galli, Flood, 250 g ai/ha
Outline: as §1

[4] = system: sedge, umbrella (small-flower umbrella sedge, Cyperus difformis); settings: Cyperus difformis, Flood, 250 g ai/ha
Outline: as §1

[5] = 360 h, visually evaluated after 13 to 15 d, read-out: Plant response rating, Ducksalad (0 to 100 scale where 0 is no effect and 100 is complete control)
[6] = 360 h, visually evaluated after 13 to 15 d, read-out: Plant response rating, Rice (0 to 100 scale where 0 is no effect and 100 is complete control)
[7] = 360 h, visually evaluated after 13 to 15 d, read-out: Plant response rating, Barnyardgrass (0 to 100 scale where 0 is no effect and 100 is complete control)
[8] = 360 h, visually evaluated after 13 to 15 d, read-out: Plant response rating, Sedge, Umbrella (0 to 100 scale where 0 is no effect and 100 is complete control)
[9] = scale of 0 to 100 where 0 is no effect and 100 is complete control, read-out: Ducksalad plant response rating
[10] = scale of 0 to 100 where 0 is no effect and 100 is complete control, read-out: Rice plant response rating
[11] = scale of 0 to 100 where 0 is no effect and 100 is complete control, read-out: Barnyardgrass plant response rating
[12] = scale of 0 to 100 where 0 is no effect and 100 is complete control, read-out: Sedge, Umbrella plant response rating
[13] = 0 to 100 scale where 0 is no effect and 100 is complete control, read-out: Ducksalad plant response rating
[14] = 0 to 100 scale where 0 is no effect and 100 is complete control, read-out: Rice plant response rating
[15] = 0 to 100 scale where 0 is no effect and 100 is complete control, read-out: Barnyardgrass plant response rating
[16] = 0 to 100 scale where 0 is no effect and 100 is complete control, read-out: Sedge, Umbrella plant response rating

SMILES	pest or weed control at 250 g/ha [1, 13]	pest or weed control at 250 g/ha [2, 14]	pest or weed control at 250 g/ha [3, 15]	pest or weed control at 250 g/ha [4, 16]	other results
CN1CC[C@H](c2cccc(C(F)(F)F)c2)[C@@H](C(=O)Nc2ccc(F)c(F)c2F)C1=O [Compound 1395]	–	–	–	–	pest or weed control at 250 g/ha [1, 5]: 80%; pest or weed control at 250 g/ha [2, 6]: 10%; pest or weed control at 250 g/ha [3, 7]: 90%; pest or weed control at 250 g/ha [4, 8]: 0%
CCc1ccc([C@H]2CNC(=S)[C@@H]2C(=O)Nc2cccc(F)c2C)cc1 [Compound 761]	–	–	–	–	pest or weed control at 250 g/ha [1, 9]: 95%; pest or weed control at 250 g/ha [2, 10]: 0%; pest or weed control at 250 g/ha [3, 11]: 0%; pest or weed control at 250 g/ha [4, 12]: 0%
CSc1ccccc1NC(=O)[C@H]1C(=O)N(C)C[C@@H]1c1ccc(F)c(C)c1 [Compound 1312]	100%	0%	40%	–	pest or weed control at 250 g/ha [4, 8]: 0%
COc1cc(C(F)(F)F)ccc1[C@H]1CNC(=O)[C@@H]1C(=O)Nc1cccc(F)c1F [Compound 1203]	100%	0%	30%	0%	–
COc1cc([C@H]2CN(C)C(=O)[C@@H]2C(=O)Nc2ccccc2S(C)(=O)=O)ccc1F [Compound 1302]	80%	15%	20%	0%	–
CN1CC[C@H](c2ccc(C(F)(F)F)cc2)[C@@H](C(=O)Nc2cccc(Cl)c2F)C1=O [Compound 1228]	100%	30%	50%	0%	–
CN1C[C@H](c2ccc(C(F)(F)F)cc2)[C@@H](C(=O)Nc2ccccc2C#N)C1=O [Compound 1379]	–	–	–	–	pest or weed control at 250 g/ha [1, 5]: 100%; pest or weed control at 250 g/ha [2, 6]: 0%; pest or weed control at 250 g/ha [3, 7]: 55%; pest or weed control at 250 g/ha [4, 8]: 0%
CN1C[C@H](c2cc(F)c(C(F)(F)F)c(F)c2)[C@@H](C(=O)Nc2ccccc2F)C1=O [Compound 899]	–	–	–	–	pest or weed control at 250 g/ha [1, 9]: 10%; pest or weed control at 250 g/ha [2, 10]: 0%; pest or weed control at 250 g/ha [3, 11]: 55%; pest or weed control at 250 g/ha [4, 12]: 0%
CC(F)(F)c1cccc([C@H]2CNC(=O)[C@@H]2C(=O)Nc2ccc(F)cc2F)c1 [Compound 781]	–	–	–	–	pest or weed control at 250 g/ha [1, 9]: 100%; pest or weed control at 250 g/ha [2, 10]: 0%; pest or weed control at 250 g/ha [3, 11]: 65%; pest or weed control at 250 g/ha [4, 12]: 0%
Cc1cc(F)cc([C@H]2CNC(=O)[C@@H]2C(=O)Nc2cccc(F)c2F)c1 [Compound 1309]	100%	20%	60%	0%	–
N#Cc1ccc([C@H]2CNC(=O)[C@@H]2C(=O)Nc2cccc(F)c2F)cc1 [Compound 1206]	95%	15%	0%	0%	–
CSc1ccccc1NC(=O)[C@H]1C(=O)N(C)C[C@@H]1c1ccc(C#N)cc1 [Compound 1230]	70%	0%	25%	0%	–
CN1C[C@H](c2cccc(C(F)(F)F)c2)[C@@H](C(=O)Nc2ccc(F)cc2C(F)(F)F)C1=O [Compound 1250]	100%	0%	50%	0%	–
CN1C[C@H](c2cc(F)cc(F)c2)[C@@H](C(=O)Nc2c(F)cccc2F)C1=O [Compound 759]	–	–	–	–	pest or weed control at 250 g/ha [1, 9]: 0%; pest or weed control at 250 g/ha [2, 10]: 0%; pest or weed control at 250 g/ha [3, 11]: 0%; pest or weed control at 250 g/ha [4, 12]: 0%
Cc1cccc([C@H]2CN(C)C(=O)[C@@H]2C(=O)Nc2ccc(F)c(F)c2F)c1 [Compound 1231]	100%	0%	85%	0%	–
Cc1ccc([C@H]2CCN(C)C(=O)[C@@H]2C(=O)Nc2cccc(Cl)c2F)cc1 [Compound 1223]	90%	30%	80%	0%	–
CN1C[C@H](c2ccc3c(c2)CCO3)[C@@H](C(=O)Nc2ccccc2F)C1=O [Compound 1321]	85%	0%	90%	–	pest or weed control at 250 g/ha [4, 8]: 0%
